{"source": "ChEMBL document CHEMBL3046105", "about": "“Synthesis and antihyperlipidemic efficiency of berberine-based HMG-CoA reductase inhibitor” (Med Chem Res, 2012)", "key": {"Oryctolagus cuniculus [1]": {"tested_on": "Oryctolagus cuniculus", "assay": "Antihyperlipidemic activity in high fat-high cholesterol fed New Zealand Oryctolagus cuniculus (rabbit) assessed as low-density lipoprotein-cholesterol level in blood at 15 mg/kg, po for 40 days (reference value: 3.45 +/- 0.56 mmol/l)", "type": "functional"}, "[2]": {"assay": "Toxicity in Mus musculus Kunming (mouse)", "type": "organism-based", "settings": "in vivo"}, "Oryctolagus cuniculus [3]": {"tested_on": "Oryctolagus cuniculus", "assay": "Reduction in hepatic steatosis and appearance of inflammatory cell in high fat-high cholesterol fed New Zealand Oryctolagus cuniculus (rabbit) at 5 mg/kg, po for 2 months by hematoxylin-eosin staining analysis", "type": "functional, organism-based", "set-up": "dose 5 mg/kg"}, "Oryctolagus cuniculus [4]": {"tested_on": "Oryctolagus cuniculus", "assay": "Toxicity in hyperlipidemic New Zealand Oryctolagus cuniculus (rabbit) assessed as alanine aminotransferase level at 10 mg/kg/day, po for 2 months (reference value: 92.14 +/- 14.3 U/l)", "type": "organism-based", "set-up": "route oral", "settings": "in vivo"}, "Oryctolagus cuniculus [5]": {"tested_on": "Oryctolagus cuniculus", "assay": "Toxicity in hyperlipidemic New Zealand Oryctolagus cuniculus (rabbit) assessed as blood urea nitrogen level at 5 mg/kg/day, po for 2 months (reference value: 7.25 +/- 1.46 mmol/l)", "type": "organism-based", "set-up": "route oral", "settings": "in vivo"}, "Oryctolagus cuniculus [6]": {"tested_on": "Oryctolagus cuniculus", "assay": "Toxicity in hyperlipidemic New Zealand Oryctolagus cuniculus (rabbit) assessed as effect on liver coefficient at 5 to 15 mg/kg/day, po for 2 months", "type": "organism-based", "set-up": "route oral", "settings": "in vivo"}, "Oryctolagus cuniculus [7]": {"tested_on": "Oryctolagus cuniculus", "assay": "Antihyperlipidemic activity in high fat-high cholesterol fed New Zealand Oryctolagus cuniculus (rabbit) assessed as triglyceride level in blood at 10 mg/kg, po for 40 days (reference value: 2.07 +/- 0.33 mmol/l)", "type": "functional"}, "Oryctolagus cuniculus [8]": {"tested_on": "Oryctolagus cuniculus", "assay": "Antihyperlipidemic activity in high fat-high cholesterol fed New Zealand Oryctolagus cuniculus (rabbit) assessed as low-density lipoprotein-cholesterol level in blood at 15 mg/kg, po for 40 days (reference value: 3.47 +/- 0.44 mmol/l)", "type": "functional"}, "Oryctolagus cuniculus [9]": {"tested_on": "Oryctolagus cuniculus", "assay": "Antihyperlipidemic activity in high fat-high cholesterol fed New Zealand Oryctolagus cuniculus (rabbit) assessed as high-density lipoprotein-cholesterol level in blood at 15 mg/kg, po for 40 days (reference value: 0.69 +/- 0.02 mmol/l)", "type": "functional"}, "[10]": {"biological_target": "T1, 3-hydroxy-3-methylglutaryl-coenzyme A reductase (Mus musculus) (UniProt Q01237)", "T1 sequence (whole entry)": "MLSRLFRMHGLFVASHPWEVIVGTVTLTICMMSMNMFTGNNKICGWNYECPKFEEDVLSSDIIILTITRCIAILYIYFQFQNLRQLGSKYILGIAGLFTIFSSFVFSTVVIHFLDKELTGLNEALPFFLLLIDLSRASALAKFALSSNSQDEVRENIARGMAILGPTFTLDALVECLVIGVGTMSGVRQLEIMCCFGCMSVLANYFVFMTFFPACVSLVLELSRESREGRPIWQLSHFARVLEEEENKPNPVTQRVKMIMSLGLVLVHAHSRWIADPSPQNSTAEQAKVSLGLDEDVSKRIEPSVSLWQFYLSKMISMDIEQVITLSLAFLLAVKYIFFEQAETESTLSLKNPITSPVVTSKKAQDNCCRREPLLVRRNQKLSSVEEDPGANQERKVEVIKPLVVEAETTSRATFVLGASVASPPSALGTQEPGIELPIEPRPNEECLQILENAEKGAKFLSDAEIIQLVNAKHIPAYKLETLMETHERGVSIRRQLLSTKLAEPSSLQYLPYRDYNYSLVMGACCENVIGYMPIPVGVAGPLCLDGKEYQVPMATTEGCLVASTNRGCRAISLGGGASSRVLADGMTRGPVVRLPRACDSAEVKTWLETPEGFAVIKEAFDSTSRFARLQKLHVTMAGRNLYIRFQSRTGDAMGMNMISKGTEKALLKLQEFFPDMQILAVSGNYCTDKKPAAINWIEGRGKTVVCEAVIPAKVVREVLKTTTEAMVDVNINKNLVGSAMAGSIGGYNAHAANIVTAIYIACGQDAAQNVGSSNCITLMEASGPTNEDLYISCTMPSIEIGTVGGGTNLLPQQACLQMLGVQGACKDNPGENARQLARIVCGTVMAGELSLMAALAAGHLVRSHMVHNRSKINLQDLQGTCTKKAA", "assay": "Inhibition of HMGR isolated from Mus musculus (mouse) liver assessed as change in NADPH at 8 umol/l by HPLC analysis"}, "Oryctolagus cuniculus [11]": {"tested_on": "Oryctolagus cuniculus", "assay": "Antihyperlipidemic activity in high fat-high cholesterol fed New Zealand Oryctolagus cuniculus (rabbit) assessed as total cholesterol level in blood at 15 mg/kg, po for 40 days (reference value: 8.74 +/- 0.53 mmol/l)", "type": "functional"}, "Oryctolagus cuniculus [12]": {"tested_on": "Oryctolagus cuniculus", "assay": "Antihyperlipidemic activity in high fat-high cholesterol fed New Zealand Oryctolagus cuniculus (rabbit) assessed as total cholesterol level in blood at 10 mg/kg, po for 40 days (reference value: 8.74 +/- 0.53 mmol/l)", "type": "functional"}, "Oryctolagus cuniculus [13]": {"tested_on": "Oryctolagus cuniculus", "assay": "Antihyperlipidemic activity in high fat-high cholesterol fed New Zealand Oryctolagus cuniculus (rabbit) assessed as low-density lipoprotein-cholesterol level in blood at 10 mg/kg, po for 40 days (reference value: 3.47 +/- 0.44 mmol/l)", "type": "functional"}, "Oryctolagus cuniculus [14]": {"tested_on": "Oryctolagus cuniculus", "assay": "Toxicity in hyperlipidemic New Zealand Oryctolagus cuniculus (rabbit) assessed as histopathological examination of heart at 5 to 15 mg/kg/day, po for 2 months by hematoxylin-eosin staining analysis", "type": "organism-based", "set-up": "route oral", "settings": "in vivo"}, "Oryctolagus cuniculus [15]": {"tested_on": "Oryctolagus cuniculus", "assay": "Reduction in number of lipid droplets in liver cells of high fat-high cholesterol fed New Zealand Oryctolagus cuniculus (rabbit) at 10 to 15 mg/kg, po for 2 months by hematoxylin-eosin staining analysis", "type": "functional, organism-based"}, "Oryctolagus cuniculus [16]": {"tested_on": "Oryctolagus cuniculus", "assay": "Toxicity in hyperlipidemic New Zealand Oryctolagus cuniculus (rabbit) assessed as alanine aminotransferase level at 5 mg/kg/day, po for 2 months (reference value: 92.14 +/- 14.3 U/l)", "type": "organism-based", "set-up": "route oral", "settings": "in vivo"}, "Oryctolagus cuniculus [17]": {"tested_on": "Oryctolagus cuniculus", "assay": "Antihyperlipidemic activity in high fat-high cholesterol fed New Zealand Oryctolagus cuniculus (rabbit) assessed as low-density lipoprotein-cholesterol level in blood at 5 mg/kg, po for 40 days (reference value: 3.47 +/- 0.44 mmol/l)", "type": "functional"}, "Oryctolagus cuniculus [18]": {"tested_on": "Oryctolagus cuniculus", "assay": "Antihyperlipidemic activity in high fat-high cholesterol fed New Zealand Oryctolagus cuniculus (rabbit) assessed as high-density lipoprotein-cholesterol level in blood at 10 mg/kg, po for 40 days (reference value: 0.69 +/- 0.02 mmol/l)", "type": "functional"}, "Oryctolagus cuniculus [19]": {"tested_on": "Oryctolagus cuniculus", "assay": "Toxicity in high fat-high cholesterol fed New Zealand Oryctolagus cuniculus (rabbit) assessed as body weight at 15 mg/kg, po for 40 days", "type": "organism-based", "set-up": "dose 15 mg/kg, route oral", "settings": "in vivo, 960 h"}, "Oryctolagus cuniculus [20]": {"tested_on": "Oryctolagus cuniculus", "assay": "Toxicity in hyperlipidemic New Zealand Oryctolagus cuniculus (rabbit) assessed as effect on spleen coefficient at 5 to 15 mg/kg/day, po for 2 months", "type": "organism-based", "set-up": "route oral", "settings": "in vivo"}, "Oryctolagus cuniculus [21]": {"tested_on": "Oryctolagus cuniculus", "assay": "Antihyperlipidemic activity in high fat-high cholesterol fed New Zealand Oryctolagus cuniculus (rabbit) assessed as triglyceride level in blood at 15 mg/kg, po for 40 days (reference value: 2.11 +/- 0.43 mmol/l)", "type": "functional"}, "Oryctolagus cuniculus [22]": {"tested_on": "Oryctolagus cuniculus", "assay": "Toxicity in hyperlipidemic New Zealand Oryctolagus cuniculus (rabbit) assessed as effect on kidney coefficient at 5 to 15 mg/kg/day, po for 2 months", "type": "organism-based", "set-up": "route oral", "settings": "in vivo"}, "Oryctolagus cuniculus [23]": {"tested_on": "Oryctolagus cuniculus", "assay": "Antihyperlipidemic activity in high fat-high cholesterol fed New Zealand Oryctolagus cuniculus (rabbit) assessed as high-density lipoprotein-cholesterol level in blood at 5 mg/kg, po for 40 days (reference value: 0.69 +/- 0.02 mmol/l)", "type": "functional"}, "Oryctolagus cuniculus [24]": {"tested_on": "Oryctolagus cuniculus", "assay": "Toxicity in hyperlipidemic New Zealand Oryctolagus cuniculus (rabbit) assessed as effect on heart coefficient at 5 to 15 mg/kg/day, po for 2 months", "type": "organism-based", "set-up": "route oral", "settings": "in vivo"}}, "note": "Active and inactive are the calls of the source. The rule behind the calls is not given here.", "data": [{"smiles": "CCCCCCCCCCCCCCCCc1c2c(OC)c(OC)ccc2cc2[n+]1CCc1cc3c(cc1-2)OCO3.[Cl-]", "note": "[8-HEXADECYL-BERBERINE CHLORIDE]", "values": [{"measurement": "Activity", "setting": "Oryctolagus cuniculus [1]", "value": "2.02e+06", "unit": "nmol/L"}, {"measurement": "LD50", "setting": "[2]", "value": "> 1000", "unit": "mg/kg"}, {"measurement": "inhibition", "setting": "Oryctolagus cuniculus [3]", "value": "Active"}, {"measurement": "Activity", "setting": "Oryctolagus cuniculus [4]", "value": 71.53, "unit": "U/L"}, {"measurement": "Activity", "setting": "Oryctolagus cuniculus [5]", "value": 5.45, "unit": "mmol/L"}, {"measurement": "Activity", "setting": "Oryctolagus cuniculus [6]", "value": "Non-toxic"}, {"measurement": "Activity", "setting": "Oryctolagus cuniculus [7]", "value": "1.89e+06", "unit": "nmol/L"}, {"measurement": "Activity", "setting": "Oryctolagus cuniculus [8]", "value": "2.05e+06", "unit": "nmol/L"}, {"measurement": "Activity", "setting": "Oryctolagus cuniculus [9]", "value": 750000, "unit": "nmol/L"}, {"measurement": "inhibition", "setting": "[10]", "value": 42.7, "unit": "%"}, {"measurement": "Activity", "setting": "Oryctolagus cuniculus [11]", "value": "2.28e+06", "unit": "nmol/L"}, {"measurement": "Activity", "setting": "Oryctolagus cuniculus [12]", "value": "4.26e+06", "unit": "nmol/L"}, {"measurement": "Activity", "setting": "Oryctolagus cuniculus [13]", "value": "2.46e+06", "unit": "nmol/L"}, {"measurement": "Activity", "setting": "Oryctolagus cuniculus [14]", "value": "Non-toxic"}, {"measurement": "inhibition", "setting": "Oryctolagus cuniculus [15]", "value": "Active"}, {"measurement": "Activity", "setting": "Oryctolagus cuniculus [16]", "value": 82.36, "unit": "U/L"}, {"measurement": "Activity", "setting": "Oryctolagus cuniculus [17]", "value": "2.67e+06", "unit": "nmol/L"}, {"measurement": "Activity", "setting": "Oryctolagus cuniculus [18]", "value": 720000, "unit": "nmol/L"}, {"measurement": "Activity", "setting": "Oryctolagus cuniculus [19]", "value": "Non-toxic"}, {"measurement": "Activity", "setting": "Oryctolagus cuniculus [20]", "value": "Non-toxic"}, {"measurement": "Activity", "setting": "Oryctolagus cuniculus [21]", "value": "1.58e+06", "unit": "nmol/L"}, {"measurement": "Activity", "setting": "Oryctolagus cuniculus [22]", "value": "Non-toxic"}, {"measurement": "Activity", "setting": "Oryctolagus cuniculus [23]", "value": 700000, "unit": "nmol/L"}, {"measurement": "Activity", "setting": "Oryctolagus cuniculus [24]", "value": "Non-toxic"}]}]}
